# Data as given in patent US9738591B2, “Antimicrobial compounds” (priority 2009, dated 2017).
# Read-outs that look alike come from different tables or passages of the source.
# What was measured:
# [1] = Storage stability of master stock solution; assay type: physicochemical; conditions: 10 mg/ml in 100% DMSO, foil-covered glass bottles, −20° C.; results not shown
# Procedure: 10 mg/ml stock solution of TSB007 was prepared in 100% DMSO. Master stock solutions of TSB007 (10 mg/ml) were made by dissolving 20 mg dehydrated compound in 2 ml 100% DMSO. They were stored in foil-covered glass bottles at −20° C. Master stocks stored in this way retained full antimicrobial activity for a minimum period of 6 weeks (results not shown).
# [2] = system: Yersinia enterocolitica ATCC 9610; assay: Disk diffusion; assay type: cell-based; conditions: 10 mg/ml, 20 μl
# [3] = system: Enterococcus faecium ATCC 19434; assay: Disk diffusion; assay type: cell-based; conditions: 10 mg/ml, 20 μl
# [4] = system: Streptococcus pneumoniae strain 12213; assay: Disk diffusion; assay type: cell-based; conditions: 10 mg/ml, 20 μl
# [5] = system: Clostridium perfringens ATCC 2734; assay type: cell-based; conditions: 10 mg/ml, 20 μl, BA - prereduced, anaerobe
# [6] = system: S. aureus and S. epidermidis; assay: MIC by broth microdilution; assay type: cell-based; conditions: CA-MHB, read-out: lowest MICs
# Procedure: The method used was based on CLSI protocols for broth microdilution testing of these species. As recommended by CLSI, inocula were prepared by direct colony suspension, and the media used were cation-adjusted Mueller Hinton broth (CA-MHB) for Staphylococcus spp. and CA-MHB containing 5% lysed horse blood (CA-MHB+LHB) for Streptococcus spp. Briefly, 24 h blood agar plate (BA) cultures of Staphylococcus aureus strains NCTC 6571, ATCC 29213, ATCC 33592 (MRSA) and NCTC 10442 (MRSA), Staphylococcus epidermidis ATCC 29971, Staphylococcus xylosus ATCC 29971, Streptococcus pneumoniae strains ATCC 49619 and ATCC 6305, and Streptococcus pyogenes strains NCTC 8191 and NCTC 8302 were used to prepare 0.5 McFarland suspensions in saline. Two 640 μg/ml working stocks of TSB007 were prepared from a fresh master stock, one in CA-MHB for testing against the Staphylococcus spp. and the other in CA-MHB+LHB for testing against Streptococcus spp. […]
# The wells of two 96-well microtitre trays (one for Staphylococcus spp. and one for Streptococcus spp.) were filled with 100 μl of the appropriate broth, except for the first column. […] The microtitre trays were then incubated at 35° C. for 24 h before the MICs were read visually. Wells were further subcultured (10 μl drop onto BA then incubated at 35° C. for 24 h) and colonies subsequently counted to determine minimum bactericidal concentrations (MBCs). […]
# [7] = system: Aeromonas hydrophila NCTC 8049/ATCC 7966; assay: Disk diffusion; conditions: 10 mg/ml, 20 μl; repeat
# [8] = system: Moraxella catarrhalis NCTC 3625; assay: Disk diffusion; conditions: 10 mg/ml, 20 μl; repeat, strain NCTC 3625
# [9] = system: Proteus mirabilis NCTC 10975; assay: Disk diffusion; conditions: 10 mg/ml, 20 μl; repeat; value printed with '?'
# [10] = system: Salmonella enterica subsp. enterica serovar Typhimurium ATCC 13311; assay: Disk diffusion; conditions: 10 mg/ml, 20 μl; repeat
# [11] = system: Bacillus cereus ATCC 13061; assay: Disk diffusion; conditions: 10 mg/ml, 20 μl
# [12] = system: Enterococcus faecalis NCTC 775; assay: Disk diffusion; conditions: 10 mg/ml, 20 μl
# [13] = system: Listeria monocytogenes NCTC 7973; assay: Disk diffusion; conditions: 10 mg/ml, 20 μl
# [14] = system: Staphylococcus aureus NCTC 6571/ATCC 9144; assay: Disk diffusion; conditions: for zone of inhibition at 10000 µg/mL: Staphylococcus aureus
# [15] = system: Staphylococcus xylosus ATCC 29971; assay: Disk diffusion; conditions: 10 mg/ml, 20 μl
# [16] = system: Streptococcus pyogenes NCTC 8191; assay: Disk diffusion; conditions: 10 mg/ml, 20 μl
structure (smiles),measurement,setting,value
O=C(O)c1ccc(/C=C/c2cc(/C=C/c3ccc(C(=O)O)cc3)cc(/C=C/c3ccc(C(=O)O)cc3)c2)cc1 [TSB007],minimum period for which master stocks retained full antimicrobial activity,[1],≥ 6 weeks
same,"Zone diameters, 24 h TSB007",[2],7 trim
same,"Zone diameters, 24 h TSB007",[3]; 24 h,11 trim
same,"Zone diameters, 48 h TSB007",[3]; 48 h,10 trim
same,"Zone diameters, Repeat Results",[4],26 trim
same,"Zone diameters, 24 h TSB007",[5]; 24 h,12 trim
same,"Zone diameters, 48 h TSB007",[5]; 48 h,12 trim
same,MIC,[6],4 µg/mL
same,"Zone diameters, Repeat Results",[7],8 trim
same,"Zone diameters, Repeat Results",[8],36 trim
same,"Zone diameters, Repeat Results",[9],9? trim
same,"Zone diameters, Repeat Results",[10],11 trim
same,"Zone diameters, 24 h TSB007",[11]; 24 h,10 trim
same,"Zone diameters, 48 h TSB007",[11]; 48 h,9 trim
same,"Zone diameters, Repeat Results",[11]; repeat,9 trim
same,"Zone diameters, 24 h TSB007",[12]; 24 h,10 trim
same,"Zone diameters, 48 h TSB007",[12]; 48 h,10 trim
same,"Zone diameters, Repeat Results",[12]; repeat,8 trim
same,"Zone diameters, 24 h TSB007",[13]; 24 h,9 trim
same,"Zone diameters, 48 h TSB007",[13]; 48 h,9 trim
same,"Zone diameters, Repeat Results","[13]; repeat, value printed with '?'",15? trim
same,"Zone diameters, 24 h TSB007","[14]; 10 mg/ml, 20 μl, 24 h",20 trim
same,"Zone diameters, 48 h TSB007","[14]; 10 mg/ml, 20 μl, 48 h",9 trim
same,"Zone diameters, 48 h O2","[14]; 10 mg/ml, 20 μl, 48 h, incubated aerobically",No zone
same,"Zone diameters, Repeat Results","[14]; 10 mg/ml, 20 μl, repeat",21 trim
same,zone of inhibition at 10000 µg/mL,"[14]; ATCC9144|NCTC6571, 24 h, read-out: Zone diameters, 24 h AnO2",18 mm
same,zone of inhibition at 10000 µg/mL,"[14]; ATCC9144|NCTC6571, 24 h, read-out: Zone diameters, 24 h O2",14 mm
same,zone of inhibition at 10000 µg/mL,"[14]; ATCC9144|NCTC6571, 48 h, read-out: Zone diameters, 48 h AnO2",18 mm
same,"Zone diameters, 24 h TSB007",[15]; 24 h,17 trim
same,"Zone diameters, Repeat Results",[15]; repeat,18 trim
same,"Zone diameters, 24 h TSB007","[16]; 24 h, Mueller Hinton + Blood & Incubated in 5% CO2",14 trim
same,"Zone diameters, 48 h TSB007","[16]; 48 h, Mueller Hinton + Blood & Incubated in 5% CO2",14 trim
same,"Zone diameters, Repeat Results",[16]; repeat,17 trim
